The values below come from patent publication US20250275918A1, “LIPID COMPOSITIONS AND METHODS FOR NUCLEIC ACID DELIVERY” (GREENLIGHT BIOSCIENCES, INC., priority 2022, published 2025).

Data set [1] in a line: Hemolysis assay (endosomal escape ability of LNPs). The settings on record: pH 7.4; LNPs formulated with the lipid. Type of data set: cell-based. The protocol: (§1) The formulation was kept at 4° C. until used in the luciferase expression assay to evaluate LNP's potency, and for toxicity using LDH assay in the HeLa and HEK293 cells. LNPs were used in the TNS assay to determine the experimental (apparent) pKa of the ionizable lipid. Hemolysis assay was used to determine the indirect endosomal escape (EE) capability of the LNPs. LNPs were evaluated in vivo for luciferase expression 6 h and 24 h post-dose in mice through i.m. injection at […]. Mice were sacrificed at the end point and then organs were harvested for ex-vivo imaging.
FIG. 6 illustrates endosomal escape ability of LNPs formulated using the ionizable lipids using a hemolysis assay.

A further data set deals with Hek 293 FT cells. Description: LDH toxicity assay. Type of data set: cell-based. The note with it: two separate batches. How it is done:
GILP-133 was tested in an assay to measure the level of lactate dehydrogenase (LDH), also known as lactic acid dehydrogenase. The LDH assay protocol is based on an enzymatic coupling reaction: LDH released from the cell oxidizes lactate to generate NADH, which then reacts with WST to generate a yellow color. The intensity of the generated color correlates directly with the number of lysed cells. This gives an indication of cytotoxicity, looking at the % of viable cells remaining. In this testing, Hek 293 FT cells were used 10 uL 1% Triton was added to positive control wells and incubated for 5 min. 50 uL cell culture medium was transferred to black 96-well plate. 50 uL LDH assay solution is added and incubated for 10 min at room temperature. Subsequently 50 ul stop solution was added and fluorescence intensity was read using a microplate reader.

A further data set has as its system mice. The experiment in a line: Animal luciferase expression study, intramuscular injection, IVIS imaging. Type of data set: in vivo. The settings on record: i.m., 5 μg of mRNA per mouse, organs at 24 h, compared to all GIL-133 formulations. How it is done: as §1
These samples were injected to mice through intramuscular injection at the leg site at a dose of 5 μg of mRNA per mouse. Compositions with control LNP of FIG. 7 were used as positive control. At 6 h and 24 h post injection, the mice were subjected to IVIS imaging system to take the whole-body image. […] The same trend was found in the whole-body imaging results.
At 24 h, the mice were sacrificed, and the main organs include heart, liver, spleen, lung, kidneys, muscle, dLNs and ndLNs were collected and imaged. […] All results are shown in 11A, 11B, 11C, 11D, and 11E.

For the molecule `CCCCCCCCC(CCCCCC)C(=O)OCCCCCCCN(C)CCCN(C)CCCCCCCOC(=O)C(CCCCCC)CCCCCCCC` (centres unmarked) [GILP-124, (propane-1,3-diylbis(methylazanediyl))bis(heptane-7,1-diyl)bis(2-hexyldecanoate)], in data set [1], the “hemolysis at neutral pH” value is reported as “negligible hemolysis”.

As for `CCCCCCCCC(CCCCCC)C(=O)OCCCCCCCN(CC)CCCN(CC)CCCCCCCOC(=O)C(CCCCCC)CCCCCCCC` (centres unmarked) [GILP-126, (propane-1,3-diylbis(ethylazanediyl))bis(heptane-7,1-diyl)bis(2-hexyldecanoate)], the “hemolysis at neutral pH” value in data set [1] was “negligible hemolysis”.

For `CCCCCCCCC(CCCCCC)C(=O)OCCCCCCCN(C)[C@@H]1CCCC[C@H]1N(C)CCCCCCCOC(=O)C(CCCCCC)CCCCCCCC` (stereo partly drawn) [GILP-133, (((1R,2S)-cyclohexane-1,2-diyl)bis(methylazanediyl))bis(heptane-7,1-diyl)bis(2-hexyldecanoate)], the “% cell viability compared to control cationic lipid of FIG. 7” value with Hek 293 FT cells is given as “equivalent % cell viability”.

In the case of `CCCCCCCCCCCOC(=O)CCCCCN(CCO)CCCCCCCC(=O)OC(CCCCCCCC)CCCCCCCC` [positive control, heptadecan-9-yl 8-[2-hydroxyethyl-(6-oxo-6-undecoxyhexyl)amino]octanoate], in the data set with mice, the “luciferase expression in ndLNs” value was “higher level of luciferase expression” and the “luciferase expression in spleen” value was “higher level of luciferase expression”.
